According to paper PMC6515340, “Synthesis of a Fluorous-Tagged Hexasaccharide and Interaction with Growth Factors Using Sugar-Coated Microplates” (Molecules, 2019):
Values joined by “and” are separate entries in the source; they are usually repeats but may differ in a detail not shown here. Identical values can stand only once. “Also recorded” adds a separate entry of the source. Like-named read-outs stand apart in the source and are kept apart here.

Key:
[1] = target: T1, midkine (Homo sapiens, UniProt P21741); test: Fluorous sugar-coated microplate direct binding assay, midkine; parameters: purchased Peprotech
T1 sequence (P21741 21-143): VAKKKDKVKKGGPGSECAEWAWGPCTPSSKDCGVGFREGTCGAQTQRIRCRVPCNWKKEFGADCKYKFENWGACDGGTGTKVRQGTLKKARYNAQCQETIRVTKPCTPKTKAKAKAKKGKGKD
Text: (§1) An alternative strategy was also considered to study these molecular recognition events. This approach involved the non-covalent immobilization of the fluorinated hexamer 17 on microtiter plates (Figure 1). Fluorous-based microarrays for the investigation of carbohydrate-protein interactions have been previously developed. A C8F17 tail was employed for the noncovalent immobilization of sugar derivatives on fluorous coated glass slides. However, to the best of our knowledge, an experimental protocol to study the interactions between fluorous sugar-coated conventional microplates and proteins has not been published. […] Thus, we created a fluorinated surface ready for the immobilization of compound 17 through noncovalent fluorous-fluorous interactions. […] Then, the binding of the attached sugar 17 to growth factors was analyzed. Incubation with different concentrations of midkine, FGF-2 and NGF was carried out and the bound protein was detected by further incubations with the corresponding primary and fluorescently labelled secondary antibodies (see Materials and Methods). Finally, the fluorescence was recorded using a standard microplate reader. The observation of fluorescence signals confirmed the interaction between immobilized 17 and the protein at a particular concentration. […]
(§2) The fluorescence was read at 535 nm using a TRIAD multimode microplate reader (from Dynex). […]

[2] = target: T2, Recombinant human NGF (Homo sapiens, UniProt P01138); test: Fluorous sugar-coated microplate direct binding assay, NGF
T2 construct: purchased Peprotech
Text: as §1, §2

[3] = target: T3, FGF-2 (Homo sapiens, UniProt P09038); test: Fluorous sugar-coated microplate direct binding assay, FGF-2; parameters: purchased Peprotech
Text: as §1, §2
Target sequence in this assay (P09038 135-288 limits assumed): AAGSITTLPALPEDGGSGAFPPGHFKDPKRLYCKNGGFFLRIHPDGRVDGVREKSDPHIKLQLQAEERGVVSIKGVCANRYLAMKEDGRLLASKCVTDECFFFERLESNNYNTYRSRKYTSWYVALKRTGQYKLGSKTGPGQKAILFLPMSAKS

[4] = target: T1, midkine; test: Fluorescence polarization (FP) competition experiment, midkine; type: binding; details: midkine 63 nM
Text: (§3) Thus, we initiated the study of the interactions between 17 and midkine, FGF-2 and NGF growth factors. First, we estimated the solution-phase binding affinities using our previously reported fluorescence polarization (FP) competition experiment (see Supplementary Materials). Briefly, we measured the ability of hexasaccharide 17 to compete with a fluorescent probe for protein binding. Thus, we calculated IC50 values as 17 concentration required for 50% inhibition. […] We also attempted to measure the binding of 17 to NGF.
(§4) Fluorescence polarization assays
(§5) In order to calculate IC 50 values, fluorescence polarization competition experiments were performed following our previously reported protocol. 1 Briefly, we recorded the fluorescence polarization from wells containing 20 µL of protein solution (midkine or FGF-2) and 10 µL of probe solution (a fluorescein labelled heparin-like hexasaccharide) in the presence of 10 µL of 17 solutions with different concentrations. 384-well microplates from Corning were used in these assays. After shaking in the dark for 5 min, the fluorescence polarization was measured using a TRIAD multimode microplate reader (from Dynex), with excitation and emission wavelengths of 485 and 535 nm, respectively. […]
(also on this page, place not known: r 2 Fluorescence Polarization (mP) r 2 Fluorescence Polarization (mP) r 2 Fluorescence Polarization (mP))

[5] = target: T3, FGF-2; test: Fluorescence polarization (FP) competition experiment, FGF-2; type: binding; details: solution FP competition with fluorescent heparin-like hexasaccharide probe (10 nM), FGF-2 97 nM; average ± SD of three independent experiments
Text: as §3, §4, §5
Target sequence in this assay (P09038 143-288): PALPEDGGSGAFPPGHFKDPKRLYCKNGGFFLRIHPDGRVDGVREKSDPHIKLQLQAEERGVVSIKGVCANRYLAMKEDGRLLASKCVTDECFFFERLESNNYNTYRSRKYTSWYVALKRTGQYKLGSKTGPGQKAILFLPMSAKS
(also on this page, place not known: r 2 Fluorescence Polarization (mP) IC50 r 2 Fluorescence Polarization (mP) IC50 r 2 Fluorescence Polarization (mP))

[6] = target: T4, Concanavalin A (Canavalia ensiformis, UniProt P02866); test: Sugar-coated microplate control with FITC-labelled Concanavalin A; type: binding; details: fluorescently labelled protein at 11 µM
T4 construct: purchased Sigma
Experimental: (§6) Importantly, we performed a control experiment in which sugar 3, instead of hexamer 17, was immobilized on the fluorous-functionalized plate (see Supplementary Materials). […] In addition, wells coated with hexamer 17 were incubated with two fluorescently labelled non-GAG binding proteins, Concanavalin A and bovine serum albumin, at 11 µM concentration (see Supplementary Materials). Again, we observed no fluorescence signals from these wells.
(§7) 2. Control experiments using additional (irrelevant) proteins.
(§8) The wells of Nunc Immobilizer AminoTM 384 microtiter plates were functionalized with heptadecafluorononylamine linker and then filled with a solution of hexamer 17 as described in the Materials and Methods section of the main text. The resulting hexasaccharide 17-coated wells were ready to perform protein interaction studies. Blank wells were coated with the fluorous linker alone. […]
(§9) Finally, the fluorescence was read at 535 nm using a TRIAD multimode microplate reader (from Dynex). For each protein, the residual fluorescence intensities obtained from blank samples were subtracted from the sugar-coated well values. In Figure S4, we show the average fluorescence intensities of three replicates after incubation with BSA and ConA. For comparison purposes, we also display the fluorescence values obtained after incubation with a 375 nM solution of midkine (detected by antibody incubations). […]

[7] = target: T5, bovine serum albumin (Bos taurus, UniProt P02769); test: Sugar-coated microplate control with FITC-labelled bovine serum albumin; type: binding; details: fluorescently labelled protein at 11 µM
T5 construct: purchased Sigma-Aldrich
Experimental: as §6, §7, §8, §9

[8] = read-out: KD,surf, sugar immobilized on fluorous-functionalized microplate, one-site binding model

T2 sequence (P01138 122-241): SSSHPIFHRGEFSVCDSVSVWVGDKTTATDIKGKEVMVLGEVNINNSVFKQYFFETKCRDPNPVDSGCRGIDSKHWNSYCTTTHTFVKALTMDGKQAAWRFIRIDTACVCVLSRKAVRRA
T5 sequence (P02769 25-607): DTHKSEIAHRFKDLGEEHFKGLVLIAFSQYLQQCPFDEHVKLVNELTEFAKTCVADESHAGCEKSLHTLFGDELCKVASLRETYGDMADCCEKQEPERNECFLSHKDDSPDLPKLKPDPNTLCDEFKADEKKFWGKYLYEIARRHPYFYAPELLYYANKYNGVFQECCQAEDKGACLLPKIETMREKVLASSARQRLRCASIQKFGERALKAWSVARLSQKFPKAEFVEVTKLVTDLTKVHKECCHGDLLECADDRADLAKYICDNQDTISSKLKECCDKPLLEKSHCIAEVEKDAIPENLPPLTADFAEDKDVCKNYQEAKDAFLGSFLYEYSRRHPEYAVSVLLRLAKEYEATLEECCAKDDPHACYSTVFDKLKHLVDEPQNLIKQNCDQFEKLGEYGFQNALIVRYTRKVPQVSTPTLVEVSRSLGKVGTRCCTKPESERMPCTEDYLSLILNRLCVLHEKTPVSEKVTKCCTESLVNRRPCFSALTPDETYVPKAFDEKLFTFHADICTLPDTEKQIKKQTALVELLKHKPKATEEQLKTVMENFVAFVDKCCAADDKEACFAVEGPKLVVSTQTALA

Row | Compound | fluorescence signal / interaction of immobilized sugar with midkine ([1]; control, sugar immobilized from 250 µM solution, 375 nM midkine) | fluorescence signal / interaction of immobilized sugar with NGF ([2]; control, sugar immobilized from 250 µM solution, 1.8 µM NGF) | fluorescence signal / interaction of immobilized sugar with FGF-2 ([3]; control, sugar immobilized from 250 µM solution, 387 nM FGF-2) | Kd [1, 8] | IC50 ([4]; Figure S1, individual competition curves, probe 10 nM, read-out: IC50 (single independent experiment)) | IC50 ([4]; solution FP competition with fluorescent heparin-like hexasaccharide probe (10 nM), average ± SD of three independent experiments, read-out: IC50) | IC50 [5] | Kd [2, 8] | interaction of immobilized sugar with Concanavalin A [6] | interaction of immobilized sugar with bovine serum albumin [7] | Kd [3, 8]
1 | COc1ccc(O[C@@H]2O[C@H](COC(=O)CCC(F)(F)C(F)(F)C(F)(F)C(F)(F)C(F)(F)C(F)(F)C(F)(F)C(F)(F)F)[C@@H](O)[C@H](OCc3ccccc3)[C@H]2OC(=O)c2ccccc2)cc1 [Compound 3] | did not significantly interact; also recorded: No fluorescence signals above background | did not significantly interact; also recorded: No fluorescence signals above background | did not significantly interact; also recorded: No fluorescence signals above background |  |  |  |  |  |  |  | 
2 | COc1ccc(OC2OC(COC(=O)CCC(F)(F)C(F)(F)C(F)(F)C(F)(F)C(F)(F)C(F)(F)C(F)(F)C(F)(F)F)C(OC3OC(COS(=O)(=O)O)C(OS(=O)(=O)O)C(OC4OC(COC(=O)C(C)(C)C)C(OC5OC(COS(=O)(=O)O)C(OS(=O)(=O)O)C(OC6OC(COC(=O)C(C)(C)C)C(OC7OC(COS(=O)(=O)O)C(OS(=O)(=O)O)C(OC(=O)CCC(C)=O)C7N7C(=O)c8ccccc8C7=O)C(OCc7ccccc7)C6OC(=O)c6ccccc6)C5N5C(=O)c6ccccc6C5=O)C(OCc5ccccc5)C4OC(=O)c4ccccc4)C3N3C(=O)c4ccccc4C3=O)C(OCc3ccccc3)C2OC(=O)c2ccccc2)cc1 (centres unmarked) [Compound 17] |  |  |  | 16 ± 5 nM | 428 nM and 479 nM and 431 nM | 450 ± 30 nM | 6300 ± 1600 nM | 1600 ± 400 nM | did not interact | did not interact | 57 ± 10 nM
